Reference: patent US8969397B2, “Systems and methods to treat pain locally” (Warsaw Orthopedic, Inc., priority 2004, dated 2015)

How the values were obtained:
[1] = system: chronic constriction injury (CCl) of the sciatic nerve; assay: Mechanical (tactile) allodynia, von Frey filaments, after chronic constriction injury; type: in vivo, rat; settings: for decrease in pain sensitivity, mechanical allodynia test / pain sensitivity in the mechanical allodynia test, in words: Example 4, FIG. 5B; for sensitivity in mechanical allodynia paradigm compared to controls: Example 3, FIG. 4, Days 8, 15 and 22 following CCl
Procedure: (§1) The behavioral animal model of chronic constriction injury (“CCl”) was chosen to evaluate the efficacy of NFκB inhibitors as a pain treatment. This model may mimic pain associated with sciatica in humans. To induce CCl, each animal was anesthetized by intraperitoneal (“i.p.”) injection of sodium pentobarbital at a dose of 60 mg/kg body weight. The animal's right common sciatic nerve was exposed and freed from adherent tissue at mid-thigh by separating the muscle (biceps femoris) by blunt dissection. Four loose ligatures were placed 1 mm apart, using chromic gut (4-0 absorbable suture, Jorgensen Laboratories Inc., Loveland, Colo.).
The ability of sulfasalazine to inhibit pain was also evaluated using a different sensitivity measure following CCl, namely mechanical (or tactile) allodynia. In this study, mechanical allodynia was determined in reaction to probing with von Frey filaments (Stoelting, Wood Dale, Ill.). Mechanical sensitivity was measured on Days 8, 15 and 22 following CCl by determining the median 50% foot withdrawal threshold for von Frey filaments using the up-down method described in Chaplan et al. (J Neurosci Methods 1994; 54:55) which is incorporated by reference herein for its teachings regarding the up-down method. Rats were placed under a plastic cover (9×9×20 cm) on a metal mesh floor. The area tested was the middle glabrous area between the footpads of the plantar surface of the injured hind paw within the L4 innervation area. The plantar area was touched with a series of 9 von Frey hairs with approximately exponentially incremental bending forces (von Frey values: 3.61, 3.8, 4.0, 4.2, 4.41, 4.6, 4.8, 5.0, and 5.2; equivalent to: 0.41, 0.63, 1.0, 1.58, 2.51, 4.07, 6.31, 10, and 15.8 g). The von Frey hair was presented perpendicular to the plantar surface with sufficient force to cause slight bending and held for approximately 3 to 4 seconds. Abrupt withdrawal of the foot (paw flinching) was recorded as a response. Any rat showing a mechanical threshold of more than 3.24 g was eliminated from the study.

[2] = system: chronic constriction injury (CCl) of the sciatic nerve; assay: Thermal hyperalgesia test (paw withdrawal latency) after chronic constriction injury; type: in vivo, rat; settings: for increase in paw withdrawal latency over baseline: 0.1 mg/kg; for mean paw withdrawal latency over baseline: Example 1, FIG. 2
Procedure: as §1
Animal behavioral testing was conducted on Days 7, 14 and 21 after CCl. In the thermal hyperalgesia test, animals were placed in the clear plastic chamber of a plantar analgesia instrument and allowed to acclimate to the environment for 15 minutes. After the acclimation period, a radiant (heat) beam source stimulus was applied to the CCl hind paw of each animal. The heat source device was set at an intensity of 50, and a maximum latency period of 15 seconds was set to prevent tissue damage according to the recommendations of the instrument manufacturer. If a paw withdrawal occurred within the 15 second period, an automated control interrupted both the stimulus and timer, turning off the radiant beam and recording the latency of time to paw withdrawal. Data was analyzed using a one-way analysis of variance at each test day.
Specifically, the same methods as described above were used except that sulfasalazine was administered at doses of 5 mg/kg; 1 mg/kg or 0.2 mg/kg.
Following the previous experiment, the effect of local doses of clonidine on pain sensitivity was explored. Animals were administered vehicle or test substances through a subcutaneously implanted Alzet pump. Again, the previously described methods for CCl and paw withdrawal latency measurements were followed except that in the presently described experiment animals received either vehicle control; 1 μg/hour Enbrel® as a positive control; 0.01 μg/hour clonidine; 0.05 μg/hour clonidine; or 0.25 μg/hour clonidine.

[3] = system: Complete Freund's Adjuvant (CFA) inflammatory pain model; settings: spinal administration; cited from earlier work
[4] = rat, in vivo, 100 mg/kg

Clc1cccc(Cl)c1N=C1NCCN1 [clonidine]
decrease in pain sensitivity, mechanical allodynia test ([1]; 0.1 mg/kg, day 8): about 58%
decrease in pain sensitivity, mechanical allodynia test ([1]; 0.1 mg/kg, day 15): ~20%
decrease in pain sensitivity, mechanical allodynia test ([1]; 0.1 mg/kg, day 22): ~48%
pain sensitivity in the mechanical allodynia test, in words ([1]; low dose (0.02 mg/kg), effect not as strong): decreased sensitivity
increase in paw withdrawal latency over baseline ([2]; Example 4, FIG. 5A, test day 7): about 78%
increase in paw withdrawal latency over baseline ([2]; Example 4, FIG. 5A, test day 21): ~61%
increase in paw withdrawal latency over baseline ([2]; Example 4, FIG. 5A, test day 41): ~60%
paw withdrawal latency over baseline ([2]; Example 5, FIG. 6, subcutaneously implanted Alzet pump, 0.01 μg/hour, test day 7): about 60%
paw withdrawal latency over baseline ([2]; Example 5, FIG. 6, subcutaneously implanted Alzet pump, 0.01 μg/hour, test day 14): ~64%
paw withdrawal latency over baseline ([2]; Example 5, FIG. 6, subcutaneously implanted Alzet pump, 0.01 μg/hour, test day 21): ~79%
paw withdrawal latency over baseline ([2]; Example 5, FIG. 6, subcutaneously implanted Alzet pump, 0.05 μg/hour, test day 7): about 68%
paw withdrawal latency over baseline ([2]; Example 5, FIG. 6, subcutaneously implanted Alzet pump, 0.05 μg/hour, test day 14): ~64%
paw withdrawal latency over baseline ([2]; Example 5, FIG. 6, subcutaneously implanted Alzet pump, 0.05 μg/hour, test day 21): ~83%
paw withdrawal latency over baseline ([2]; Example 5, FIG. 6, subcutaneously implanted Alzet pump, 0.25 μg/hour, test day 7): about 63%
paw withdrawal latency over baseline ([2]; Example 5, FIG. 6, subcutaneously implanted Alzet pump, 0.25 μg/hour, test day 14): ~70%
paw withdrawal latency over baseline ([2]; Example 5, FIG. 6, subcutaneously implanted Alzet pump, 0.25 μg/hour, test day 21): ~82%
dose reduction without loss of efficacy ([2]; Example 5, local dosing by pump): 25 fold

S=C(S)N1CCCC1 [PDTC, pyrollidinedithiocarbamate]
mechanical allodynia [3]: significantly reduce
thermal hyperalgesia [3]: significantly reduce
pain sensitivity in the mechanical allodynia test, in words ([1]; compared to animals receiving vehicle or Enbrel): showed some effect in decreasing pain sensitivity
drug toxicity [4]: removed from the study following the second day of testing due to drug toxicity
paw withdrawal latencies versus control levels ([2]; Example 4, FIG. 5A, 20 mg/kg or 100 mg/kg, not as effective as other NFκB inhibiting compounds): did increase paw withdrawal latencies over control levels

CC1=C(CC(=O)O)c2cc(F)ccc2/C1=C\c1ccc([S+](C)[O-])cc1 (centres unmarked) [sulindac]
decrease in pain sensitivity, mechanical allodynia test ([1]; 2 mg/kg, day 8): about 66%
decrease in pain sensitivity, mechanical allodynia test ([1]; 2 mg/kg, day 15): ~50%
decrease in pain sensitivity, mechanical allodynia test ([1]; 2 mg/kg, day 22): ~35%
decrease in pain sensitivity, mechanical allodynia test ([1]; 10 mg/kg, day 8): about 68%
decrease in pain sensitivity, mechanical allodynia test ([1]; 10 mg/kg, day 15): about 58%
decrease in pain sensitivity, mechanical allodynia test ([1]; 10 mg/kg, day 22): ~60%
paw withdrawal latency over baseline ([2]; Example 4, FIG. 5A, 2 mg/kg, all three test days): about 65%
paw withdrawal latency over baseline ([2]; Example 4, FIG. 5A, 10 mg/kg, test day 7): about 65%
paw withdrawal latency over baseline ([2]; Example 4, FIG. 5A, 10 mg/kg, test day 21): about 75%
paw withdrawal latency over baseline ([2]; Example 4, FIG. 5A, 10 mg/kg, test day 41): ~81%

O=C(O)c1cc(/N=N/c2ccc(S(=O)(=O)Nc3ccccn3)cc2)ccc1O [sulfasalazine]
sensitivity in mechanical allodynia paradigm compared to controls [1]: decreased sensitivity
mean paw withdrawal latency over baseline ([2]; 5 mg/kg, test day 7): about 80%
mean paw withdrawal latency over baseline ([2]; 5 mg/kg, test day 14): ~83%
mean paw withdrawal latency over baseline ([2]; 5 mg/kg, test day 21): ~87%
mean paw withdrawal latency over baseline ([2]; 50 mg/kg, test day 7): about 74%
mean paw withdrawal latency over baseline ([2]; 50 mg/kg, test day 14): ~79%
mean paw withdrawal latency over baseline ([2]; 50 mg/kg, test day 21): ~83%

Enbrel®
sensitivity in mechanical allodynia paradigm compared to controls [1]: decreased sensitivity
mean paw withdrawal latency over baseline ([2]; 3 mg/kg, test day 7): about 60%
mean paw withdrawal latency over baseline ([2]; 3 mg/kg, test day 14): ~63%
mean paw withdrawal latency over baseline ([2]; 3 mg/kg, test day 21): ~75%
paw withdrawal latency over baseline ([2]; Example 2, FIG. 3, positive control, test day 7): about 51%
paw withdrawal latency over baseline ([2]; Example 2, FIG. 3, positive control, test day 14): ~63%
paw withdrawal latency over baseline ([2]; Example 2, FIG. 3, positive control, test day 21): ~62%
paw withdrawal latency over baseline, average ([2]; Example 4, FIG. 5A, 3 mg/kg, all three test days): about 51%
paw withdrawal latency over baseline ([2]; Example 5, FIG. 6, subcutaneously implanted Alzet pump, 1 μg/hour, test day 7): about 45%
paw withdrawal latency over baseline ([2]; Example 5, FIG. 6, subcutaneously implanted Alzet pump, 1 μg/hour, test day 14): about 60%
paw withdrawal latency over baseline ([2]; Example 5, FIG. 6, subcutaneously implanted Alzet pump, 1 μg/hour, test day 21): ~71%
